Data from US9150569B2, “Nitrogen-containing heterocyclic compound having inhibitory effect on production of kynurenine” (KYOWA HAKKO KIRIN CO., LTD., priority 2010, dated 2015).

Tested on: production of kynurenine in KATO-III cells
Assay: Inhibitory activity on the production of kynurenine (IFN-γ-treated KATO-III cells, kynurenine in the culture medium quantified by absorbance at 480 nm)
Assay type: cell-based
Conditions: test compound at 10 μmol/L, human gastric cancer cell line KATO-III, 96 hours, read-out: inhibition rate (production of kynurenine)
Experimental: This assay was performed by a modification of the method described in J. Biol. Chem., vol. 263, pp. 2041-2048 (1988). For culture of the human gastric cancer cell line KATO-III, RPMI 1640 (GIBCO, 11875) supplemented with 10 volt FBS (GIBCO, 10091-148, lot. 665285) was used. One μL of a test substance in a DMSO solution was diluted with 199 μL of the culture medium and placed in wells of a 384-well plate (10 μL/well). Next, IFN-γ (Sigma, 1-3265) was added to the culture medium to a concentration of 31.25 ng/mL, and KATO-III cells were suspended at 50,000 cells/mL in the culture medium. Forty μL of the suspension was added to each well (2,000 cells/well) and incubated under a 5% CO2 atmosphere at 37° C. for 96 hours. The final concentration of DMSO was limited to 0.1 volt or less so that DMSO itself may not affect the kynurenine concentration measured by this assay. After the incubation, 10 μL of a 30 w/vt aqueous trichloroacetic acid solution was added to each well, and incubation was performed at 65° C. for 30 minutes. The plate was centrifuged at 2,500×g for 5 minutes and 15μL of the supernatant in each well was transferred into another 384-well plate. To the transferred supernatant, 15 μL of a 2 w/vt solution of p-dimethylaminobenzaldehyde in acetic acid was added, incubation was performed at 65° C. for 20 minutes and the absorbance was measured at 480 nm.
Sample: the absorbance value of the well to which a DMSO solution containing a test substance was added and in which the cells were treated with IFN-γ.
Blank: the absorbance value of the well to which DMSO not containing a test substance was added and in which the cells were treated with IFN-γ.
Control: the absorbance value of the well to which DMSO not containing a test substance was added and in which the cells were not treated with IFN-γ.
In this assay, expression of IDO in KATO-III cells is induced by IFN-γ treatment and kynurenine in the culture medium is quantified. The kynurenine concentration in a culture medium is known to increase in proportion to the enzymatic activity of intracellular IDO (for example, J. Biol. Chem., vol. 263, pp. 2041-2048 ([…])). […] The production of kynurenine is known to be inhibited by IDO inhibitors (for example, J. Clin. Invest., vol. 117, No. 5, pp. 1147-1154 […]), and thus it is speculated that Compounds (I) also have an inhibitory effect on IDO.

Compound | inhibition at 10 µM
CCCS(=O)(=O)Nc1nc2ccccc2nc1OC(c1ccn2cc(C)nc2c1)C(F)(F)F (centres unmarked) [Compound 53, N-(3-(2,2,2-trifluoro-1-(2-methylimidazo[1,2-a]pyridin-7-yl)ethoxy)quinoxalin-2-yl)propane-1-sulfonamide] | ≥ 80%
CCCS(=O)(=O)Nc1nc2ccccc2nc1OC(c1cc[n+]([O-])cc1)C(F)(F)F (centres unmarked) [Compound 43, 4-(2,2,2-trifluoro-1-(3-(propylsulfonamido)quinoxalin-2-yloxy)ethyl)pyridine 1-oxide] | ≥ 80%
CCCCS(=O)(=O)Nc1nc2ccccc2nc1OC(c1ccc(S(C)(=O)=O)nc1)C(F)(F)F (centres unmarked) [Compound 40, N-(3-(2,2,2-trifluoro-1-(6-(methylsulfonyl)pyridin-3-yl)ethoxy)quinoxalin-2-yl)butane-1-sulfonamide] | ≥ 80%
CCCS(=O)(=O)Nc1nc2ccccc2nc1OC(c1ccc[n+]([O-])c1)C(C)(C)C (centres unmarked) [Compound 4, 3-(2,2-dimethyl-1-(3-(propylsulfonamido)quinoxalin-2-yloxy)propyl)pyridine 1-oxide] | ≥ 80%
CCCS(=O)(=O)Nc1nc2ccccc2nc1OC(c1cccnc1)C(C)(C)C (centres unmarked) [Compound 3, N-(3-(2,2-dimethyl-1-(pyridin-3-yl)propoxy)quinoxalin-2-yl) propane-1-sulfonamide] | ≥ 80%
CCCS(=O)(=O)Nc1nc2ccccc2nc1OC(c1ccnc(N)c1)C(F)(F)F (centres unmarked) [Compound 45, N-(3-(1-(2-aminopyridin-4-yl)-2,2,2-trifluoroethoxy)quinoxalin-2-yl)propane-1-sulfonamide] | ≥ 80%
CCCS(=O)(=O)Nc1nc2ccccc2nc1OC(c1ccc[n+]([O-])c1)C1CC1 (centres unmarked) [Compound 6, 3-(cyclopropyl(3-(propylsulfonamido)quinoxalin-2-yloxy)methyl)pyridine 1-oxide] | ≥ 80%
CCCS(=O)(=O)Nc1nc2ccccc2nc1OC(c1ccncc1)C(F)(F)F (centres unmarked) [Compound 42, N-(3-(2,2,2-trifluoro-1-(pyridin-4-yl)ethoxy)quinoxalin-2-yl)propane-1-sulfonamide] | ≥ 80%
CCCCC(Oc1nc2ccccc2nc1NS(=O)(=O)CCC)c1ccc[n+]([O-])c1 (centres unmarked) [Compound 12, 3-(1-(3-(propylsulfonamido)quinoxalin-2-yloxy)pentyl)pyridine 1-oxide] | ≥ 80%
CCCS(=O)(=O)Nc1nc2ccccc2nc1OC(c1ccnc(N(C)C(C)=O)c1)C(F)(F)F (centres unmarked) [Compound 49, N-methyl-N-(4-(2,2,2-trifluoro-1-(3-(propylsulfonamido)quinoxalin-2-yloxy)ethyl)pyridin-2-yl)acetamide] | ≥ 80%
CCCS(=O)(=O)Nc1nc2ccccc2nc1OC(c1ccc(-c2cnn(C)c2)nc1)C(F)(F)F (centres unmarked) [Compound 32, N-(3-(2,2,2-trifluoro-1-(6-(1-methyl-1H-pyrazol-4-yl)pyridin-3-yl)ethoxy)quinoxalin-2-yl)propane-1-sulfonamide] | ≥ 80%
CCCCS(=O)(=O)Nc1nc2ccccc2nc1OC(c1cc[n+]([O-])cc1)C(F)(F)F (centres unmarked) [Compound 47, 4-(1-(3-(butylsulfonamido)quinoxalin-2-yloxy)-2,2,2-trifluoroethyl)pyridine 1-oxide] | ≥ 80%
CCCCS(=O)(=O)Nc1nc2ccccc2nc1OC(c1ccc2nccn2c1)C(F)(F)F (centres unmarked) [Compound 28, N-(3-(2,2,2-trifluoro-1-(imidazo[1,2-a]pyridin-6-yl)ethoxy)quinoxalin-2-yl)butane-1-sulfonamide] | ≥ 80%
CCCS(=O)(=O)Nc1nc2ccccc2nc1OC(c1ccc[n+]([O-])c1)C(C)(C)F (centres unmarked) [Compound 8, 3-(2-fluoro-2-methyl-1-(3-(propylsulfonamido)quinoxalin-2-yloxy)propyl)pyridine 1-oxide] | ≥ 80%
CCCS(=O)(=O)Nc1nc2ccccc2nc1OC(c1ccccc1)c1cccnc1 (centres unmarked) [Compound 23, N-(3-(phenyl(pyridin-3-yl)methoxy)quinoxalin-2-yl)propane-1-sulfonamide] | ≥ 80%
CCCS(=O)(=O)Nc1nc2ccccc2nc1OC(c1cnc(SC)nc1)C(F)(F)F (centres unmarked) [Compound 55, N-(3-(2,2,2-trifluoro-1-(2-(methylthio)pyrimidin-5-yl)ethoxy)quinoxalin-2-yl)propane-1-sulfonamide] | ≥ 80%
CCCS(=O)(=O)Nc1nc2ccccc2nc1OC(c1ccc(C#N)nc1)C(F)(F)F (centres unmarked) [Compound 26, N-(3-(1-(6-cyanopyridin-3-yl)-2,2,2-trifluoroethoxy)quinoxalin-2-yl)propane-1-sulfonamide] | ≥ 80%
COCCS(=O)(=O)Nc1nc2ccccc2nc1OC(c1ccc(-n2ccnc2C)nc1)C(F)(F)F (centres unmarked) [Compound 69, 2-methoxy-N-(3-(2,2,2-trifluoro-1-(6-(2-methyl-1H-imidazol-1-yl)pyridin-3-yl)ethoxy)quinoxalin-2-yl)ethanesulfonamide] | ≥ 80%
COCCS(=O)(=O)Nc1nc2ccccc2nc1OC(c1ccnc(C(C)=O)c1)C(F)(F)F (centres unmarked) [Compound 72, N-(3-(1-(2-acetylpyridin-4-yl)-2,2,2-trifluoroethoxy)quinoxalin-2-yl)-2-methoxyethanesulfonamide] | ≥ 80%
CCCS(=O)(=O)Nc1nc2ccccc2nc1OC(c1ccc[n+]([O-])c1)C1(C)CC1 (centres unmarked) [Compound 14, 3-((1-methylcyclopropyl)(3-(propylsulfonamido)quinoxalin-2-yloxy)methyl)pyridine 1-oxide] | ≥ 80%
CCCS(=O)(=O)Nc1nc2ccccc2nc1OC(c1cnc(C)n1C)C(F)(F)F (centres unmarked) [Compound 70, N-(3-(1-(1,2-dimethyl-1H-imidazol-5-yl)-2,2,2-trifluoroethoxy)quinoxalin-2-yl)propane-1-sulfonamide] | ≥ 80%
CCCC(Oc1nc2ccccc2nc1NS(=O)(=O)CCC)c1cccnc1 (centres unmarked) [Compound 21, N-(3-(1-(pyridin-3-yl)butoxy)quinoxalin-2-yl)propane-1-sulfonamide] | ≥ 80%
CCCS(=O)(=O)Nc1nc2ccccc2nc1OC(c1ccc(-c2noc(C)n2)nc1)C(F)(F)F (centres unmarked) [Compound 66, N-(3-(2,2,2-trifluoro-1-(6-(5-methyl-1,2,4-oxadiazol-3-yl)pyridin-3-yl)ethoxy)quinoxalin-2-yl)propane-1-sulfonamide] | ≥ 80%
CC(C)CS(=O)(=O)Nc1nc2ccccc2nc1OC(c1ccc2nccn2c1)C(F)(F)F (centres unmarked) [Compound 29, 2-methyl-N-(3-(2,2,2-trifluoro-1-(imidazo[1,2-a]pyridin-6-yl)ethoxy)quinoxalin-2-yl)propane-1-sulfonamide] | ≥ 80%
CCCS(=O)(=O)Nc1nc2ccccc2nc1OC(c1cccnc1)C(F)F (centres unmarked) [Compound 17, N-(3-(2,2-difluoro-1-(pyridin-3-yl)ethoxy)quinoxalin-2-yl) propane-1-sulfonamide] | ≥ 80%
CCCS(=O)(=O)Nc1nc2ccccc2nc1OC(C)c1cccnc1 (centres unmarked) [Compound 19, N-(3-(1-(pyridin-3-yl)ethoxy)quinoxalin-2-yl)propane-1-sulfonamide] | ≥ 80%
CC(C)CS(=O)(=O)Nc1nc2ccccc2nc1OC(c1ccncc1)C(F)(F)F (centres unmarked) [Compound 51, 2-methyl-N-(3-(2,2,2-trifluoro-1-(pyridin-4-yl)ethoxy)quinoxalin-2-yl)propane-1-sulfonamide] | ≥ 80%
CCCS(=O)(=O)Nc1nc2ccccc2nc1OC(c1ccc(-c2cnn(C)n2)nc1)C(F)(F)F (centres unmarked) [Compound 64A, N-(3-(2,2,2-trifluoro-1-(6-(2-methyl-2H-1,2,3-triazol-4-yl)pyridin-3-yl)ethoxy)quinoxalin-2-yl)propane-1-sulfonamide] | ≥ 80%
C#Cc1ccc2nc(OC(c3cccnc3)C(F)(F)F)c(NS(=O)(=O)CCC)nc2c1 (centres unmarked) [Compound 79, N-(7-ethynyl-3-(2,2,2-trifluoro-1-(pyridin-3-yl)ethoxy)quinoxalin-2-yl)propane-1-sulfonamide] | ≥ 80%
